Measured values published in patent US20130089724A1, “NOVEL ORGANIC UV ABSORBERS” (COMMISSARIAT A L'ENERGIE ATOMIQUE ET AUX ENERGIES …, priority 2010, published 2013).

Legend:
Format in all cases: physicochemical
[1] = accelerated aging test of colored textile behind sol-gel filter layer (NF EN ISO 105-B2)
Description: A sol-gel deposited layer is produced on a glass slide under the same conditions as example 1 above, with a starting 5 mg/ml solution of pyrene-1-carboxylic.
This sample is used as filter affixed to a colored textile.
A glass slide not treated with this deposited layer is also affixed to another sample of the same colored textile for the purposes of reference sample.
The two samples are exposed to an accelerated aging test in a Suntest CPS chamber from Atlas. The aging conditions are as follows and in accordance with the standard NF EN ISO 105-B2: irradiance at 550 W/m^2, xenon arc lamp equipped with a “sheet glass” filter which cuts off the UV radiation below 310 nm, exposure time 72 h.

[2] = accelerated aging test (Suntest CPS) of silica sol-gel deposited layer, 620 W/m^2, 24 h; conditions: 0.5 mg/ml solution, xenon arc 620 W/m^2, cut-off 310 nm
Description: A silica sol-gel solution is formed by the hydrolysis of a silicon alkoxide (tetraethoxysilane, CAS No. 78-10-4) in the presence of ethanol and hydrochloric acid.
A 0.5 mg/ml aqueous pyrene-1-carboxylic solution is formed with a molar equivalent of sodium hydroxide.
One volume of the pyrene-1-carboxylic solution is mixed with an equivalent volume of the sol-gel solution: the mixture is deposited by “knife coating” on a microscope slide transparent to UV-A radiation.
After drying in ambient air, this slide is subjected to an accelerated aging test in a Suntest CPS chamber from Atlas.
The aging conditions are as follows: irradiance at 620 W/m^2, xenon arc lamp equipped with a “sheet glass” filter which cuts off the UV radiation below 310 nm, exposure time 24 h.
FIG. 1 reports the UV transmission spectra of the silica sol-gel deposited layer in which the pyrene-1-carboxylic is incorporated, before/after exposure.
The “light” stability of the pyrene-1-carboxylic compound is thus confirmed.

[3] = comparative accelerated aging test of pyrene derivatives in silica sol-gel layer; conditions: 0.5 mg/ml, 620 W/m^2, 24 h, black body 55° C, versus pyrenesulfonic, pyreneboronic, pyreneacetic
Description: A silica sol-gel solution as defined in example 1 is prepared.
At the same time, four aqueous solutions respectively comprising pyrenecarboxylic, pyrenesulfonic, pyreneboronic and pyreneacetic, at 0.5 mg/ml, with one molar equivalent of sodium hydroxide, are prepared.
A volume of each aqueous solution thus obtained is mixed with an equivalent volume of the sol-gel solution: each mixture obtained is subsequently deposited by “knife coating” on a microscope slide transparent to UV-A radiation.
After drying in ambient air, these slides are subjected to an accelerated aging test in a Suntest CPS chamber from Atlas.
The aging conditions are as follows: irradiance at 620 W/m^2, xenon arc lamp equipped with a “sheet glass” filter which cuts off the UV radiation below 310 nm, exposure time 24 h. The temperature for regulating the black body is 55° C.
FIG. 3 reports the absorption spectra of the different pyrene derivatives described above as a function of time.

[4] = stability toward solar irradiation (general statement); conditions: compared with conventional UV stabilizers / substituted benzotriazoles
[5] = accelerated aging test of polyurethane varnish deposited layer, 550 W/m^2, 72 h; conditions: 50 mg per g polyurethane solution
Description: A curing agent is added to a solution of polyurethane (70% by weight) in a xylene/toluene mixture.
A molecule of nonfunctionalized pyrene (CAS No. 129000) is added in a proportion of 50 mg of pyrene per gram of polyurethane solution.
The mixture is deposited by “knife coating” on a glass slide transparent to UV-A radiation.
After drying in ambient air, this slide is subjected to an accelerated aging test in a Suntest CPS chamber from Atlas. The aging conditions are as follows: irradiance at 550 W/m^2, xenon arc lamp equipped with a “sheet glass” filter which cuts off the UV radiation below 310 nm, exposure time 72 h.
The pyrene not in accordance with the invention is obviously not stable to light.

SMILES	color change of the sol-gel deposited layer after exposure ([1]; 5 mg/ml solution, xenon arc 550 W/m^2, 72 h)	degradation grade on the scale of the blues of the protected colored textile ([1]; scale of 8 levels, 1 most degraded, 8 least degraded, 550 W/m^2, 72 h, untreated reference grade 1)	UV/visible transmission properties of the coating before/after exposure [2]	stability over time of absorption peak under UV [3]	stability toward solar irradiation / radiation [4]	UV/vis transmission properties of the coating before/after exposure [5]
O=C(O)c1ccc2ccc3cccc4ccc1c2c34 [pyrene-1-carboxylic, pyrene-1-carboxylic acid]	has not changed in color	4-5	retained	best stability over time	equivalent to that of substituted benzotriazoles	–
c1cc2ccc3cccc4ccc(c1)c2c34 [pyrene]	–	–	–	–	–	very significantly degraded
